Measured values published in the supplement of paper PMC7017272.
± gives the standard deviation of the averaged measurements.

Key:
Settings in all cases: treatment time: 3 days
UT-SCC-24A = experiment: relative IC50 (midpoint of the fitted curve; maximal inhibition may be below 50%); higher = less potent
Procedure: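 HNSCC cell lines (500 cells/well, 384-well) were cultured on plastic, on top of (2D) or embedded (3D) in Matrigel or human leiomyoma matrix Myogel (500 ug/mL; Myogel 3D mixed with rat collagen I). Cells were treated for 3 days with 5 ten-fold concentrations of each drug, and viability was read by CellTiter-Glo. Viability was normalised to DMSO (0% inhibition) and 100 uM benzethonium chloride (100% inhibition) controls and fitted with the FIMM DSRT pipeline to give IC50 (nM), maximal % inhibition and the drug sensitivity score (DSS). Suffixes _1/_2/_3 on drug names are replicates.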

UT-SCC-40 [1] = experiment: maximal % inhibition of viability relative to DMSO; higher = stronger effect
Procedure: (§1)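 HNSCC cell lines (500 cells/well, 384-well) were cultured on plastic, on top of (2D) or embedded (3D) in Matrigel or human leiomyoma matrix Myogel (500 ug/mL; Myogel 3D mixed with rat collagen I). Cells were treated for 3 days with 5 ten-fold concentrations of each drug, and viability was read by CellTiter-Glo. Viability was normalised to DMSO and benzethonium chloride controls and fitted with the FIMM DSRT pipeline to give IC50 (nM), maximal % inhibition and DSS. Suffixes _1/_2/_3 are replicates. Only inhibition-mode (IC50) fits are kept.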

UT-SCC-42B [2] = experiment: as above
Procedure: as §1

UT-SCC-8 [3] = experiment: as above
Procedure: as §1

UT-SCC-73 [4] = experiment: as above
Procedure: as §1

UT-SCC-81 [5] = experiment: as above
Procedure: as §1

UT-SCC-44 [6] = experiment: as above
Procedure: as §1

UT-SCC-24B [7] = experiment: as above
Procedure: as §1

UT-SCC-42A [8] = experiment: as above
Procedure: as §1

UT-SCC-40 [9] = experiment: relative IC50 (midpoint of the fitted curve; maximal inhibition may be below 50%); higher = less potent
How it was run: (§2)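 Three growth formats were used for HPV-negative HNSCC cell lines in 384-well plates at 500 cells/well: bare plastic, wells coated with Matrigel or Myogel (500 µg/mL), and embedding in Matrigel or Myogel plus rat collagen I. Compounds were added at five 10-fold concentrations, and after 3 days CellTiter-Glo 2.0 luminescence was recorded and normalised to vehicle (0.1% DMSO) and cell-killing control wells. IC50, maximal inhibition and drug sensitivity score came from percent-inhibition dose–response fitting in the FIMM pipeline.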

UT-SCC-42B [10] = experiment: as above
How it was run: as §2

UT-SCC-8 [11] = experiment: as above
How it was run: as §2

UT-SCC-73 [12] = experiment: as above
How it was run: as §2

UT-SCC-81 [13] = experiment: as above
How it was run: as §2

UT-SCC-44 [14] = experiment: as above
How it was run: as §2

UT-SCC-106A = experiment: as above
How it was run: as §2

UT-SCC-24B [15] = experiment: as above
How it was run: as §2

UT-SCC-42A [16] = experiment: as above
How it was run: as §2

UT-SCC-14 = experiment: as above
How it was run: as §2

[17] = culture condition: embedded in Matrigel
[18] = culture condition: on top of Matrigel
[19] = culture condition: plastic 2D (no matrix)
[20] = culture condition: embedded in Myogel + collagen I
[21] = culture condition: on top of Myogel

COc1cc(F)c(F)c(Nc2ccc(I)cc2F)c1NS(=O)(=O)C1(C[C@H](O)CO)CC1 [Refametinib]
relative IC50 (UT-SCC-24A; [17]): 3.14 nM | relative IC50 (UT-SCC-24A; [18]): 8.76 nM | relative IC50 (UT-SCC-24A; [19]): 9.97 nM | maximal % inhibition of viability (UT-SCC-40 [1]; [17]): 80.9 ± 2.5% | maximal % inhibition of viability (UT-SCC-40 [1]; [20]): 76 ± 7.2% | maximal % inhibition of viability (UT-SCC-40 [1]; [18]): 75.9 ± 1.6% | maximal % inhibition of viability (UT-SCC-40 [1]; [21]): 61.23 ± 0.5% | maximal % inhibition of viability (UT-SCC-40 [1]; [19]): 63.2 ± 2.9% | maximal % inhibition of viability (UT-SCC-42B [2]; [17]): 79.1 ± 7.6% | maximal % inhibition of viability (UT-SCC-42B [2]; [18]): 64.1 ± 4.8% | maximal % inhibition of viability (UT-SCC-42B [2]; [21]): 46.5 ± 1.5% | maximal % inhibition of viability (UT-SCC-42B [2]; [19]): 47.5 ± 2.6% | maximal % inhibition of viability (UT-SCC-8 [3]; [17]): 88.8 ± 1.6% | maximal % inhibition of viability (UT-SCC-8 [3]; [20]): 74.1 ± 13% | maximal % inhibition of viability (UT-SCC-8 [3]; [18]): 81.7 ± 2.5% | maximal % inhibition of viability (UT-SCC-8 [3]; [21]): 73 ± 5.1% | maximal % inhibition of viability (UT-SCC-8 [3]; [19]): 80.2 ± 3.9% | maximal % inhibition of viability (UT-SCC-73 [4]; [17]): 85.7 ± 3.9% | maximal % inhibition of viability (UT-SCC-73 [4]; [20]): 73.4 ± 14% | maximal % inhibition of viability (UT-SCC-73 [4]; [18]): 81.8 ± 1.5% | maximal % inhibition of viability (UT-SCC-73 [4]; [21]): 72 ± 2.7% | maximal % inhibition of viability (UT-SCC-73 [4]; [19]): 75.8 ± 3.1% | maximal % inhibition of viability (UT-SCC-81 [5]; [17]): 87.7 ± 0.46% | maximal % inhibition of viability (UT-SCC-81 [5]; [20]): 50.7 ± 1.9% | maximal % inhibition of viability (UT-SCC-81 [5]; [18]): 82.7 ± 0.99% | maximal % inhibition of viability (UT-SCC-81 [5]; [21]): 52 ± 3.4% | maximal % inhibition of viability (UT-SCC-81 [5]; [19]): 73.1 ± 2.5% | maximal % inhibition of viability (UT-SCC-44 [6]; [17]): 90.4 ± 2.6% | maximal % inhibition of viability (UT-SCC-44 [6]; [20]): 55.1 ± 5% | maximal % inhibition of viability (UT-SCC-44 [6]; [18]): 73.2 ± 7% | maximal % inhibition of viability (UT-SCC-44 [6]; [21]): 56.9 ± 0.9% | maximal % inhibition of viability (UT-SCC-44 [6]; [19]): 62.2 ± 4.4% | maximal % inhibition of viability (UT-SCC-24B [7]; [17]): 72.4 ± 3.9% | maximal % inhibition of viability (UT-SCC-24B [7]; [20]): 86.3 ± 3.8% | maximal % inhibition of viability (UT-SCC-24B [7]; [18]): 72.9 ± 4.8% | maximal % inhibition of viability (UT-SCC-24B [7]; [21]): 72.2 ± 2.3% | maximal % inhibition of viability (UT-SCC-24B [7]; [19]): 84 ± 2.2% | maximal % inhibition of viability (UT-SCC-42A [8]; [17]): 61.2 ± 1.2% | maximal % inhibition of viability (UT-SCC-42A [8]; [20]): 42.4 ± 6.9% | maximal % inhibition of viability (UT-SCC-42A [8]; [18]): 61.9 ± 0.94% | maximal % inhibition of viability (UT-SCC-42A [8]; [21]): 48.8 ± 5.2% | maximal % inhibition of viability (UT-SCC-42A [8]; [19]): 58.8 ± 3.1% | relative IC50 (UT-SCC-40 [9]; [17]): 15.3 nM | relative IC50 (UT-SCC-40 [9]; [20]): 118 nM | relative IC50 (UT-SCC-40 [9]; [18]): 33.5 nM | relative IC50 (UT-SCC-40 [9]; [21]): 83.3 nM | relative IC50 (UT-SCC-40 [9]; [19]): 111 nM | relative IC50 (UT-SCC-42B [10]; [17]): 16.6 nM | relative IC50 (UT-SCC-42B [10]; [18]): 79.5 nM | relative IC50 (UT-SCC-42B [10]; [21]): 757 nM | relative IC50 (UT-SCC-42B [10]; [19]): 218 nM | relative IC50 (UT-SCC-8 [11]; [17]): 259 nM | relative IC50 (UT-SCC-8 [11]; [20]): 1760 nM | relative IC50 (UT-SCC-8 [11]; [18]): 410 nM | relative IC50 (UT-SCC-8 [11]; [19]): 602 nM | relative IC50 (UT-SCC-73 [12]; [17]): 38.5 nM | relative IC50 (UT-SCC-73 [12]; [18]): 31.8 nM | relative IC50 (UT-SCC-73 [12]; [21]): 132 nM | relative IC50 (UT-SCC-73 [12]; [19]): 64.4 nM | relative IC50 (UT-SCC-81 [13]; [17]): 14.2 nM | relative IC50 (UT-SCC-81 [13]; [20]): 924 nM | relative IC50 (UT-SCC-81 [13]; [18]): 61.6 nM | relative IC50 (UT-SCC-81 [13]; [19]): 850 nM | relative IC50 (UT-SCC-44 [14]; [17]): 56.2 nM | relative IC50 (UT-SCC-44 [14]; [20]): 417 nM | relative IC50 (UT-SCC-44 [14]; [18]): 58.4 nM | relative IC50 (UT-SCC-44 [14]; [21]): 569 nM | relative IC50 (UT-SCC-44 [14]; [19]): 61.7 nM | relative IC50 (UT-SCC-106A; [17]): 15.2 nM | relative IC50 (UT-SCC-106A; [18]): 15.5 nM | relative IC50 (UT-SCC-106A; [21]): 498 nM | relative IC50 (UT-SCC-106A; [19]): 25.7 nM | relative IC50 (UT-SCC-24B [15]; [17]): 309 nM | relative IC50 (UT-SCC-24B [15]; [20]): 808 nM | relative IC50 (UT-SCC-24B [15]; [18]): 317 nM | relative IC50 (UT-SCC-24B [15]; [21]): 1430 nM | relative IC50 (UT-SCC-24B [15]; [19]): 184 nM | relative IC50 (UT-SCC-42A [16]; [17]): 36.3 nM | relative IC50 (UT-SCC-42A [16]; [20]): 94.1 nM | relative IC50 (UT-SCC-42A [16]; [18]): 20.8 nM | relative IC50 (UT-SCC-42A [16]; [19]): 41.5 nM | relative IC50 (UT-SCC-14; [20]): 238 nM | relative IC50 (UT-SCC-14; [18]): 146 nM | relative IC50 (UT-SCC-14; [21]): 299 nM
